Measured values as given in ChEMBL document CHEMBL4011601, “Synthesis and molecular docking studies of new furochromone derivatives as p38α MAPK inhibitors targeting human breast cancer MCF-7 cells” (Bioorg Med Chem, 2017).

How the values were obtained:
MCF7 [1] = test: Antiproliferative activity against human MCF7 cells after 3 days by MTT assay; assay type: functional, cell-based; settings: MCF7, 72 h
MAP kinase p38 = MAP kinase p38 (Homo sapiens, UniProt O15264+Q15759+Q16539+P53778); test: Inhibition of p38 MAPK (unknown origin) using ATF2 as substrate measured after 15 by ELISA
MCF7 [2] = test: Potency index, ratio of Doxorubicin IC50 to compound IC50 against human MCF7 cells; assay type: functional
MCF7 [3] = test: Induction of apoptosis in human MCF7 cells assessed as late apoptotic cells after 24 hrs by Annexin-V/propidium iodide staining based FACS analysis (reference value: 4.3%); assay type: functional
MCF7 [4] = test: Induction of apoptosis in human MCF7 cells assessed as necrotic cells after 24 hrs by Annexin-V/propidium iodide staining based FACS analysis (reference value: 0.3%); assay type: functional
MCF7 [5] = test: Cell cycle arrest in human MCF7 cells assessed as accumulation at S phase after 24 hrs by propidium iodide staining-based flow cytometric method (reference value: 25.1%); assay type: functional
MCF7 [6] = test: Induction of apoptosis in human MCF7 cells assessed as early apoptotic cells after 24 hrs by Annexin-V/propidium iodide staining based FACS analysis (reference value: 2.7%); assay type: functional
MCF7 [7] = test: Cell cycle arrest in human MCF7 cells assessed as accumulation at G1 phase after 24 hrs by propidium iodide staining-based flow cytometric method (reference value: 67.2%); assay type: functional
MCF7 [8] = test: Induction of apoptosis in human MCF7 cells assessed as increase in caspase3 level at 0.007 uM after 24 hrs by ELISA; assay type: functional
MCF7 [9] = test: Induction of apoptosis in human MCF7 cells assessed as increase in caspase9 level at 0.007 uM after 24 hrs by ELISA; assay type: functional
MCF7 [10] = test: Induction of apoptosis in human MCF7 cells assessed as viable cells after 24 hrs by Annexin-V/propidium iodide staining based FACS analysis (reference value: 92.7%); assay type: functional
MCF7 [11] = test: Cell cycle arrest in human MCF7 cells assessed as accumulation at G2 phase after 24 hrs by propidium iodide staining-based flow cytometric method (reference value: 6.4%); assay type: functional

Compound	IC50 (MCF7 [1])	IC50 (MAP kinase p38)	also measured
COc1ccc(-c2cc(-c3c(C)oc4cc5occc5c(OC)c4c3=O)[nH]c(=O)c2C#N)cc1OC	140 nM		
COc1ccc(-c2cc(-c3c(C)oc4cc5occc5c(OC)c4c3=O)[nH]c(=N)c2C#N)cc1OC	50 nM	0.72 µM	
COc1c2occc2c(OC)c2c(=O)c(-c3cc(-c4ccc(F)cc4)c(C#N)c(=N)[nH]3)c(C)oc12	20 nM	0.63 µM	
COc1ccc(-c2cc(-c3c(C)oc4c(OC)c5occc5c(OC)c4c3=O)[nH]c(=N)c2C#N)cc1OC	10 nM	0.31 µM	
COc1c2occc2c(OC)c2c(=O)c(-c3cc(-c4ccc(F)cc4)[nH]c(=S)n3)c(C)oc12	20 nM	0.38 µM	
COc1ccc(-c2cc(-c3c(C)oc4c(OC)c5occc5c(OC)c4c3=O)nc(=S)[nH]2)cc1OC	50 nM	1.39 µM	
COc1c2ccoc2cc2oc(C)c(-c3cc(-c4ccc(F)cc4)c(C#N)c(=O)[nH]3)c(=O)c12	30 nM	0.23 µM	
COc1c2occc2c(OC)c2c(=O)c(C3=CC(c4ccc(F)cc4)=C4C(N)=NC=NC4N3)c(C)oc12 (centres undefined)	170 nM		Ratio IC50 (MCF7 [2]): 3.6
COc1c2occc2c(OC)c2c(=O)c(C3=NN(c4ccccc4)C(c4ccc(F)cc4)C3)c(C)oc12 (centres undefined)	40 nM	1.09 µM	
COc1c2occc2c(OC)c2c(=O)c(-c3cc(-c4ccc(F)cc4)[nH]c(=O)n3)c(C)oc12	80 nM		
COc1c2ccoc2cc2oc(C)c(-c3cc(-c4ccc(F)cc4)c(C#N)c(=N)[nH]3)c(=O)c12	40 nM	0.19 µM	
COc1c2occc2c(OC)c2c(=O)c(C3=NN(C(C)=O)C(c4ccc(F)cc4)C3)c(C)oc12 (centres undefined)	150 nM		
COc1c2occc2c(OC)c2c(=O)c(C3=CC(c4ccc(F)cc4)NO3)c(C)oc12 (centres undefined)	40 nM	0.86 µM	
COc1ccc(C2C=C(c3c(C)oc4c(OC)c5occc5c(OC)c4c3=O)ON2)cc1OC (centres undefined)	50 nM	1.09 µM	
COc1ccc(-c2cc(-c3c(C)oc4c(OC)c5occc5c(OC)c4c3=O)nc(=O)[nH]2)cc1OC	80 nM		
COc1ccc(C2CC(c3c(C)oc4c(OC)c5occc5c(OC)c4c3=O)=NN2C(C)=O)cc1OC (centres undefined)	7 nM	0.67 µM	Activity (MCF7 [3]): 15.2%; Activity (MCF7 [4]): 3.3%; Activity (MCF7 [5]): 24.3%; Activity (MCF7 [6]): 17.4%; Activity (MCF7 [7]): 31.2%; Activity (MCF7 [8]): 446.6 ng/mL; Activity (MCF7 [9]): 16.39 ng/mL; Activity (MCF7 [10]): 64.1%; Activity (MCF7 [11]): 21.2%
COc1c2occc2c(OC)c2c(=O)c(-c3cc(-c4ccc(F)cc4)c(C#N)c(=O)[nH]3)c(C)oc12	100 nM		Ratio IC50 (MCF7 [2]): 6
